According to patent US20100286155A1, “ADRENOCORTICAL CARCINOMA TREATMENT” (OSI PHARMACEUTICALS, INC., priority 2009, published 2010):

Columns and labels:
[1] = tested on: H295R ACC tumor cell line; assay: H295R ACC tumor cell line OSI-906 sensitivity: proliferation (Cell Titer Glo) and apoptosis (Caspase Glo); format: cell-based, human; conditions: varying concentrations; proliferation at 72 h, apoptosis at 48 h after dosing
[2] = molecular target: T1, IGF-1R (Homo sapiens, UniProt P08069); assay: pIGF-1R inhibition in H295R tumor cells, RTK capture array; format: cell-based; conditions: 3 uM, 24 hours
T1 construct: endogenous in cells; host or cells: H295R ACC tumor cell line
Description: (§1) Measurement of pIGF-1R and pIR was determined by RTK capture array (ARY001, R&D Systems), and measurement of pAkt was determined by WB.

[3] = tested on: pAkt; assay: pAkt inhibition in H295R tumor cells, WB; format: cell-based, human; conditions: 3 uM, 24 hours
Description: as §1

[4] = tested on: adrenocortical carcinoma (ACC); assay: Phase I clinical trials of OSI-906 in ACC patients (RECIST, CT, FDG-PET); format: in vivo, human
Description: As of 14 Apr. 2009 in two phase I clinical trials, seven patients have been enrolled with ACC.
Patient 1 is a ACC patient, previously treated with six cycles of etoposide, cisplatin, and doxorubicin and mitotane from Feb. 2008 to Jul. 2008. […] 1, 2008, 450 mg/day, escalating to 600 mg, on days 1-3 of each 14 day period. At 8 weeks of treatment, CT scan was reported as stable. […] The overall reduction in RECIST measurement of target lesions was 43%. Subsequent scans indicated incremental response, including a scan showing a partial response of 72% decrease by RECIST compared to baseline. […] ACC is typically thought to be an FDG-avid tumor.
Objective Response Criteria (RECIST)
Complete Response: Disappearance of all clinical and radiological evidence of tumor (both target and nontarget) including normalization of elevated tumor markers at baseline, if documented. The patient must be free of all tumor-related symptoms. Complete Response must be confirmed at a second tumor assessment not less than 28 days apart from the assessment at which CR was observed.
Partial Response: At least a 30% decrease in the sum of Longest Diameter (LD) of target lesions taking as reference the baseline sum LD. Partial Response must be confirmed at a second tumor assessment not less than 28 days apart from the assessment at which PR was observed.
Stable Disease: Steady state of disease. Neither sufficient shrinkage to qualify for PR nor sufficient increase to qualify for progressive disease. Stable disease must be documented to be present at least 28 days from the start of the therapy. There may be no appearance of new lesions for this category.
Progressive Disease: At least a 20% increase in the sum of LD of measured lesions taking as references the smallest sum LD recorded since the treatment started. Appearance of new lesions will also constitute progressive disease. In exceptional circumstances, unequivocal progression of nontarget lesions may be accepted as evidence of disease progression (DP).
All patients who have measurable disease according to RECIST, who received at least 2 treatment periods of therapy, and who have their disease re-evaluated will be evaluable for response. All sites of disease should be followed as either target or nontarget lesions, as categorized at baseline. All measurable lesions up to a maximum of 5 lesions per organ or 10 lesions in total, representative of all involved organs, should be identified as target lesions, while all other lesions (either additional measurable lesions or nonmeasurable lesions) should be classified as nontarget lesions. To ensure comparability, the baseline radiology/scans and subsequent radiology/scans to assess response should be performed using identical techniques (i.e., scans performed immediately following bolus contrast administration should be made with a standard volume of contrast, the identical contrast agent, and preferably the same scanner). The same method, radiological or physical, should be employed and assessed by the same individual on each occasion.

[5] = Patient 1, 450 mg/day escalating to 600 mg, days 1-3 of each 14 day period
[6] = seven ACC patients enrolled in two phase I trials, as of 14 Apr. 2009

T1 sequence (P08069 31-1367): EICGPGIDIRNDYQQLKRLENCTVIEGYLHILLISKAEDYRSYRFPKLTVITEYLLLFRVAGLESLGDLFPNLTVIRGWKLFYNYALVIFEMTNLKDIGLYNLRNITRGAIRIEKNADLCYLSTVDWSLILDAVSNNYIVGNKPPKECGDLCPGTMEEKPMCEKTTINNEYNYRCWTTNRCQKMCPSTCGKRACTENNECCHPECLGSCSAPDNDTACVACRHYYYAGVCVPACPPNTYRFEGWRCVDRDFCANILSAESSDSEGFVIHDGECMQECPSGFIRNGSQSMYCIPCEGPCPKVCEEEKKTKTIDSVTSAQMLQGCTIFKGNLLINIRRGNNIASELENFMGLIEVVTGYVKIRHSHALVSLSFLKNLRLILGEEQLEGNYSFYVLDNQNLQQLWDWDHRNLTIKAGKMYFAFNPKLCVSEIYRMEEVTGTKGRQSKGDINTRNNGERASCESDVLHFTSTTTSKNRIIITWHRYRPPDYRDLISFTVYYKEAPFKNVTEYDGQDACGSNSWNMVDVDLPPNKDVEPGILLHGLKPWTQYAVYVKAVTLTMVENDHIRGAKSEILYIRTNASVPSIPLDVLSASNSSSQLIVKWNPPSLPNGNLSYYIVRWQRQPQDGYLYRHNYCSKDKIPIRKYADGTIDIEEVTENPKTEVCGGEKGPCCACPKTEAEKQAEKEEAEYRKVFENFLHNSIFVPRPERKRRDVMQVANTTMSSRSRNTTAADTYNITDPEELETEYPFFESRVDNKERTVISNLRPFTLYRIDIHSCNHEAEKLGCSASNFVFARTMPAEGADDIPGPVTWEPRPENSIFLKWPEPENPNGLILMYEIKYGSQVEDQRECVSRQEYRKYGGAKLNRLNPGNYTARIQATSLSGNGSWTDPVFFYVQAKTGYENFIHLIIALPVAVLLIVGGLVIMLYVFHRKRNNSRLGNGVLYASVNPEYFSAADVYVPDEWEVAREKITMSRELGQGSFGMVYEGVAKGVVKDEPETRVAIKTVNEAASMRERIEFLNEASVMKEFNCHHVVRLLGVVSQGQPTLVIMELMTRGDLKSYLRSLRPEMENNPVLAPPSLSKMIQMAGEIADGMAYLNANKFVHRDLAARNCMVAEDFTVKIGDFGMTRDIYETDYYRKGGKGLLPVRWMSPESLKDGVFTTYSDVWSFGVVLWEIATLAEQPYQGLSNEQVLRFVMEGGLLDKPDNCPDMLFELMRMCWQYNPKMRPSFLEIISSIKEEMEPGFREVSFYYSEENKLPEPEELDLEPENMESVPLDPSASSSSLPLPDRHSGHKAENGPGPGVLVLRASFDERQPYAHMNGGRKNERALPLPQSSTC

C[C@]1(O)C[C@@H](c2nc(-c3ccc4ccc(-c5ccccc5)nc4c3)c3c(N)nccn32)C1 [OSI-906, cis-3-[8-amino-1-(2-phenyl-quinolin-7-yl)-imidazo[1,5-a]pyrazin-3-yl]-1-methyl-cyclobutanol]
sensitivity of H295R ACC tumor cell line (proliferation and apoptosis) [1]: exhibits sensitivity to OSI-906
inhibition of phosphorylation of IGF-1R (pIGF-1R) [2]: inhibits phosphorylation of both receptors
inhibition of pAkt [3]: inhibition of pAkt
CT scan result at 8 weeks of treatment [4, 5]: stable
CT scan result at 16 weeks [4, 5]: decrease in primary lesion as well as improvement in all pulmonary lesions
18-FDG-PET scan tumor uptake of tracer ([4]; Patient 1, 30 weeks into treatment, residual primary tumor and two remaining metastases): no tumor uptake of the tracer
overall reduction in RECIST measurement of target lesions ([4]; Patient 1, at 16 weeks): 43%
partial response, decrease by RECIST compared to baseline ([4]; Patient 1, subsequent scan): 72%
drug-related toxicities ([4]; Patient 1, up to 56 weeks): No drug-related toxicities have been observed
patients with partial response [4, 6]: One had partial response
patients with stable disease [4, 6]: two had stable disease for >6 months
patients with symptomatic response [4, 6]: one had a dramatic, short-lived sympitomatic response
